Laboratory results published in patent US12297192B2, “Crystal form of pyrimidine sulfonamide compound and preparation method therefor” (WUXI BIOCITY BIOPHARMACEUTICS CO., LTD., priority 2019, dated 2025).

How the values were obtained:
[1] = target: T1, Human Pregnane X Receptor (PXR) (Homo sapiens, UniProt O75469); test: Human pregnane X receptor (PXR) test, induction of PXR-mediated CYP3A expression in DPX2 cells; format: in vitro ADME
T1 construct: host or cells: DPX2 cells
T1 sequence (O75469 1-434): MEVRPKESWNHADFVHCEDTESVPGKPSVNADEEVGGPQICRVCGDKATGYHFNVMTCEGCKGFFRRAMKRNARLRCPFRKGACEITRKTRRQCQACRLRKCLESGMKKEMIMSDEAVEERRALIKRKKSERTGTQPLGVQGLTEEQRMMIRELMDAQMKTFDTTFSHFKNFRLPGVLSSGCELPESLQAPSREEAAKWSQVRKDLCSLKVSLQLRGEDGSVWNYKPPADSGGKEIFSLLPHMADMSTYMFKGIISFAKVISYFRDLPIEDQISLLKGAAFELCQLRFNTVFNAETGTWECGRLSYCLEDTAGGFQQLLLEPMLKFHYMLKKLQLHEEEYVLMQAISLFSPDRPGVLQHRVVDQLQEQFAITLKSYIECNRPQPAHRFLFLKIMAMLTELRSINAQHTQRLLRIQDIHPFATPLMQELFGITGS
Procedure: To assess the induction of PXR-mediated CYP3A expression by the compounds.
Experimental Protocol: • 1. The DPX2 cells was thawed under aseptic conditions. • 2. The DPX2 cytosol was distributed in 96-well plates (100 μl/well) and placed the plates in a 5% CO2/37° C. incubator overnight. • 3. The quantitative feeding medium was thawed in a 37° C. water bath. The positive control rifampicin was thawed at room temperature. A series of the test compound and positive control dilutions were prepared in quantitative feeding medium. The medium was carefully aspirated and discarded from each well, without disturbing the cells during the aspiration process. […] Enzyme activity test: • (1) 7 μl of Luciferin-IPA was added to 7 ml of quantitative feeding medium, inverted to mix, and poured into the Luciferin-IPA reagent tank. • (2) The 96-well plate was taken out of the incubator and the medium was carefully aspirated from each well. […] The plate was placed back to the incubator for 60 minutes. • (7) 40 μl of Luciferin detection reagent/P450-Glo buffer was added to each well of the replicate plate, stirred and incubated for 20 minutes at room temperature. • (8) After incubation with Luciferin detection reagent for 20 minutes, a luminometer (set for 1-5 seconds. Read out time) was used to determine the luminescence of each well of the white 96-well plate. […] The fluorescence intensity of each well was measured. […]

human ETA receptors = target: T2, human ETA receptors (Homo sapiens, UniProt P25101); test: In vitro antagonistic effect on human ETA receptors (Ca2+ fluorescence, SK-N-MC cells); format: cell-based
T2 construct: endogenously expressed human ETA receptors in SK-N-MC cells; host or cells: SK-N-MC cells
T2 sequence (P25101 21-427): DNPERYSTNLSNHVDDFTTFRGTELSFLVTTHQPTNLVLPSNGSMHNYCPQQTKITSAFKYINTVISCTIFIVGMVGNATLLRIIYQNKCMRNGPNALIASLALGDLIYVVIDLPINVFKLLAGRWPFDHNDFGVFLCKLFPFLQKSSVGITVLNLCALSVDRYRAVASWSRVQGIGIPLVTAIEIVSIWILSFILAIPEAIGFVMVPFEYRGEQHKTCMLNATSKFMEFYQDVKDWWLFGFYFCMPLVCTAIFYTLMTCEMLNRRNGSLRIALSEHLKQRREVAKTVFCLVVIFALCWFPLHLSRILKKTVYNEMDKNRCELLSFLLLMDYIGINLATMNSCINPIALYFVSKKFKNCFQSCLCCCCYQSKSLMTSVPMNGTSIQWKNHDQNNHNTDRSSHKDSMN
Procedure: The antagonistic activity of the compounds on endogenously expressed human ETA receptors in SK-N-MC cells was assessed by measuring the effects of the compounds on changes in cytoplasmic Ca^2+ ion signaling induced by an agonist of human ETA receptor using a fluorescence assay. The functional activity of the ETA receptor antagonistic effect was tested at Eurofins-Cerep SA according to current standard operating procedures.
• 1. Cells were suspended in Dulbecco's modified Eagle medium solution (DMEM, Invitrogen) supplemented with 1% FCSd and then distributed at a density of 5×10^4 cells/well in 384 plates (100 μL/well). • 2. Hank's Balanced Salt Solution (HBSS, Invitrogen) supplemented with 20 mM 4-(2-hydroxyethyl) piperazine-1-ethanesulfonic acid (Hepes, Invitrogen) (pH 7.4) was mixed with the fluorescent probe (Fluo4 NW, Invitrogen) and added to each well. Equilibrated with the cells for 60 minutes at 37° C. and then for 15 min at 22° C. • 3. The assay plate was placed in a microplate reader (CellLux, PerkinElmer). DMSO solution of the test compound and the positive control in appropriate concentration or HBSS buffer was added. After 5 minutes, 1 nM endothelin-1 or HBSS buffer (basal control) was added. Then the change in fluorescence intensity was measured. The fluorescence intensity is in proportion to the Ca^2+ ion concentration of the free cytosol. • 4. […] The standard positive control was BQ-123 and several concentrations were tested in each experiment and the data was analyzed using Prism to produce a concentration-response curve to calculate the IC50 values of the compounds. • 6.

CCCNS(=O)(=O)Nc1ncnc(OCCOc2ncc(Br)cn2)c1-c1ccc(Br)cc1 [Macitentan, reference compound]
Induction of PXR-mediated CYP3A expression (in words) [1]: strong induction

COCCNS(=O)(=O)Nc1ncnc(OCCOc2ncc(Br)cn2)c1-c1ccc2c(c1)OCO2
In vitro antagonistic activity against the human ETA receptor (in words) (human ETA receptors): very high | Selectivity for ETA over ETB (human ETA receptors): 20,000 fold | IC50 (human ETA receptors; SK-N-MC cells, 1 nM endothelin-1): 1.6 nM | ETA/ETB Selectivity (human ETA receptors; table value): 20000

COCCNS(=O)(=O)Nc1ncnc(OCCOc2ncc(Br)cn2)c1-c1ccc2c(c1)OCO2 [Compound of formula (I)]
Induction of PXR-mediated CYP3A expression (in words) [1]: weak induction
